Reference: ChEMBL document CHEMBL1201862, “PubChem BioAssay data set” (2004)
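1) Cells in 96-well plates. 2) Compound, 48 h, 5 concentrations. 3) Linear interpolation between surrounding doses. 4) Unreached endpoint = highest concentration. GI50 is the concentration that inhibits growth by half.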 Activity calls are given as the source filed them. Cut-off read from the data, not from the text of the source: active = GI50 up to about 1.1 µM and inactive = higher.

Experiments:
Assay in all cases: NCI-60 cell line screen, 48 h
SF-539 = tested on: SF-539
SK-MEL-2 = tested on: SK-MEL-2
NCI-H23 = tested on: NCI-H23
RPMI-8226 = tested on: RPMI-8226
SK-MEL-28 = tested on: SK-MEL-28
HT-29 = tested on: HT-29
HOP-62 = tested on: HOP-62
K562 = tested on: K562
SK-MEL-5 = tested on: SK-MEL-5
ACHN = tested on: ACHN
SF-268 = tested on: SF-268
SNB-75 = tested on: SNB-75
DMS-273 = tested on: DMS-273
CAKI-1 = tested on: CAKI-1
A498 = tested on: A498
Hs-578T = tested on: Hs-578T
T47D = tested on: T47D
PC-3 = tested on: PC-3
SR = tested on: SR
MDA-N = tested on: MDA-N

Measured: GI50

Cc1cc(C)nc(NS(=O)(=O)c2ccc(Nc3c4ccccc4nc4c(C(=O)Nc5ccc(S(N)(=O)=O)cc5)cccc34)cc2)n1
inactive: SF-539 > 100 µM | SK-MEL-2 > 100 µM | NCI-H23 68.5 µM | RPMI-8226 > 100 µM | SK-MEL-28 83.9 µM | HT-29 > 100 µM | HOP-62 > 100 µM | K562 72.4 µM | SK-MEL-5 > 100 µM | ACHN > 100 µM | SF-268 50.9 µM | SNB-75 25.8 µM | DMS-273 92.5 µM | CAKI-1 > 100 µM | A498 43.3 µM

CC(O)C(NC(=O)c1ccccc1)C(=O)N(Cc1ccccc1)Cc1ccccc1 (stereo not drawn)
inactive: SF-539 > 100 µM | SK-MEL-2 > 100 µM | NCI-H23 > 100 µM | RPMI-8226 28.9 µM | SK-MEL-28 > 100 µM | HT-29 > 10 µM | HOP-62 > 100 µM | K562 97.9 µM | SK-MEL-5 60 µM | ACHN > 100 µM | SF-268 > 100 µM | SNB-75 47.5 µM | DMS-273 > 100 µM | CAKI-1 18.2 µM | A498 69.3 µM

c1ccc(C(c2ccccc2)c2ccncc2)cc1
inactive: SF-539 > 100 µM | SK-MEL-2 > 100 µM | NCI-H23 > 100 µM | RPMI-8226 > 100 µM | SK-MEL-28 > 100 µM | HT-29 75.9 µM | HOP-62 > 100 µM | K562 > 100 µM | SK-MEL-5 > 100 µM | ACHN > 100 µM | SF-268 > 100 µM | SNB-75 18 µM | DMS-273 > 100 µM | CAKI-1 > 100 µM | A498 > 100 µM

COc1cc(/C=C/c2ccncc2)cc(OC)c1OC
inactive: SF-539 > 100 µM | NCI-H23 > 100 µM | RPMI-8226 52.4 µM | SK-MEL-28 > 100 µM | HT-29 64.3 µM | HOP-62 53.6 µM | K562 52.7 µM | SK-MEL-5 63.2 µM | ACHN > 100 µM | SF-268 > 100 µM | SNB-75 39.2 µM | DMS-273 96.6 µM | CAKI-1 49 µM | A498 30.5 µM

Nc1cc(CO)cc(Nc2c3ccccc3nc3ccccc23)c1
inactive: SF-539 17.6 µM | SK-MEL-2 14.1 µM | NCI-H23 15.9 µM | Hs-578T 18.3 µM | T47D 18.4 µM | RPMI-8226 29.8 µM | SK-MEL-28 17.8 µM | HT-29 14.7 µM | HOP-62 14.7 µM | K562 14.2 µM | PC-3 15.5 µM | SK-MEL-5 17 µM | ACHN 17.2 µM | SF-268 17.9 µM | SR 53 µM | SNB-75 15.8 µM | MDA-N 20.6 µM | CAKI-1 17.5 µM | A498 24.6 µM

Cc1ccc(Sc2ccccc2N)cc1
inactive: SF-539 29.5 µM | SK-MEL-2 35.7 µM | NCI-H23 26.7 µM | RPMI-8226 19.3 µM | SK-MEL-28 67 µM | HT-29 31.1 µM | HOP-62 6.53 µM | K562 37.4 µM | SK-MEL-5 20.7 µM | ACHN 37.7 µM | SF-268 21 µM | SNB-75 44.8 µM | DMS-273 30.8 µM | CAKI-1 21.6 µM | A498 30.8 µM

Nc1c(S(=O)(=O)O)cc(Nc2cccc(S(=O)(=O)/C=C/S(=O)(=O)O)c2)c2c1C(=O)c1ccccc1C2=O
inactive: SF-539 > 100 µM | SK-MEL-2 > 100 µM | NCI-H23 > 100 µM | Hs-578T 73.3 µM | T47D > 100 µM | RPMI-8226 > 100 µM | SK-MEL-28 > 100 µM | HT-29 > 100 µM | HOP-62 > 100 µM | K562 > 100 µM | PC-3 > 100 µM | SK-MEL-5 > 100 µM | ACHN > 100 µM | SF-268 > 100 µM | SR > 100 µM | SNB-75 34.7 µM | MDA-N > 100 µM | CAKI-1 > 100 µM | A498 > 100 µM

Cc1ccccc1NC(=O)C(=O)C(C(=O)c1ccccc1F)C1OC(=O)c2ccccc21 (stereo not drawn)
inactive: SF-539 8.32 µM | SK-MEL-2 24.7 µM | NCI-H23 10.3 µM | RPMI-8226 11.9 µM | SK-MEL-28 16.5 µM | HT-29 40.3 µM | HOP-62 17.3 µM | K562 24.3 µM | SK-MEL-5 22.4 µM | ACHN 43.7 µM | SF-268 18.9 µM | SNB-75 8.39 µM | DMS-273 23.3 µM | CAKI-1 21.1 µM | A498 45.8 µM

O=C(c1ccccc1)c1ccc(-n2c3ccccc3c3ccc4c(c32)C(=O)C=CC4=O)cc1
inactive: SF-539 10.4 µM | SK-MEL-2 19.3 µM | NCI-H23 12.8 µM | Hs-578T 23.4 µM | T47D 3.1 µM | RPMI-8226 6.17 µM | SK-MEL-28 8.83 µM | HT-29 2.82 µM | HOP-62 16.4 µM | K562 3.4 µM | PC-3 11.7 µM | SK-MEL-5 18.7 µM | ACHN 4.38 µM | SF-268 10.7 µM | SR 3.15 µM | SNB-75 22.7 µM | MDA-N 16.5 µM | CAKI-1 2.07 µM | A498 12.2 µM

COc1cc2c3cc1Oc1c(OC)c(OC)cc4c1C(=NCC4)Cc1ccc(cc1)Oc1cc(ccc1O)C[C@H]3N(C)CC2
inactive: SF-539 14.8 µM | SK-MEL-2 16.7 µM | NCI-H23 19.1 µM | Hs-578T 17.6 µM | T47D 21 µM | RPMI-8226 16.3 µM | SK-MEL-28 16.7 µM | HT-29 10.8 µM | HOP-62 22.3 µM | K562 12.7 µM | PC-3 13.2 µM | SK-MEL-5 12.2 µM | ACHN 23.1 µM | SF-268 22.6 µM | SR 5.74 µM | SNB-75 14.1 µM | MDA-N 16.6 µM | CAKI-1 20.6 µM | A498 22 µM

Cc1ccc2nc3sc(=O)sc3nc2c1 [CHINOMETHIONAT]
inactive: SF-539 18.7 µM | SK-MEL-2 14.4 µM | NCI-H23 19.4 µM | Hs-578T 25 µM | T47D 83.6 µM | RPMI-8226 19.5 µM | SK-MEL-28 17.9 µM | HT-29 17.1 µM | HOP-62 16.6 µM | K562 26.2 µM | PC-3 14.3 µM | SK-MEL-5 15.6 µM | ACHN 15.2 µM | SF-268 16.4 µM | SR 21.1 µM | SNB-75 19.6 µM | MDA-N 17.4 µM | CAKI-1 16.4 µM | A498 7.48 µM

CC(C)(C)c1ccc(OCCOCCOc2ccc(C(C)(C)C)cc2S(=O)(=O)Nc2ccc([N+](=O)[O-])cc2)c(S(=O)(=O)Nc2ccc([N+](=O)[O-])cc2)c1
inactive: SF-539 > 100 µM | SK-MEL-2 8.07 µM | NCI-H23 12.7 µM | SK-MEL-28 15.5 µM | HT-29 7.38 µM | HOP-62 81.7 µM | K562 6.21 µM | SK-MEL-5 6.17 µM | ACHN 7.13 µM | SF-268 8.45 µM | SNB-75 56.6 µM | DMS-273 7.94 µM | CAKI-1 9.31 µM | A498 8.15 µM
